Values of other authors in patent US20080066744A1, “PROCESS FOR PRODUCING METERED DOSE INHALER FORMULATIONS” (Schering Corporation, priority 2002, published 2008).
Where two headings read alike, the source gives them in different places.

C[C@@H]1C[C@H]2[C@@H]3CCC4=CC(=O)C=C[C@]4(C)[C@@]3(Cl)[C@@H](O)C[C@]2(C)[C@@]1(OC(=O)c1ccco1)C(=O)CCl [Mometasone furoate, 9,21-Dichloro-11(beta), 17-dihydroxy-16(alpha)-methylpregna-1,4-diene-3,20-dione 17-(2 furoate)]
solubility (in acetone): soluble | solubility (in chloroform): soluble | solubility (in ethanol): slightly soluble | solubility (in isopropanol): slightly soluble | solubility (in methanol): slightly soluble | solubility (in tetrahydrofuran): freely soluble | solubility (in water): practically insoluble

(alpha) ^1[(tert-Butylamino)methyl]4-hydroxy-m-xylene-(alpha),(alpha)′-diol sulfate (2:1)(salt) [Albuterol sulfate]
solubility (in ethanol): slightly soluble | solubility (in water): soluble
